This passage reports IC50 results from patent US20260297109A1, “COMPOUNDS AS SUMO ACTIVATING ENZYME INHIBITORS” (WIGEN BIOMEDICINE TECHNOLOGY (SHANGHAI) CO., LTD., priority 2022, published 2026).

SMILES strings stand for the structures.

One assay addresses T1, SAE (Homo sapiens, UniProt Q9UBT2).
T1 construct: endogenous in cells; host or cells: HCT116
T1 sequence (Q9UBT2 1-640): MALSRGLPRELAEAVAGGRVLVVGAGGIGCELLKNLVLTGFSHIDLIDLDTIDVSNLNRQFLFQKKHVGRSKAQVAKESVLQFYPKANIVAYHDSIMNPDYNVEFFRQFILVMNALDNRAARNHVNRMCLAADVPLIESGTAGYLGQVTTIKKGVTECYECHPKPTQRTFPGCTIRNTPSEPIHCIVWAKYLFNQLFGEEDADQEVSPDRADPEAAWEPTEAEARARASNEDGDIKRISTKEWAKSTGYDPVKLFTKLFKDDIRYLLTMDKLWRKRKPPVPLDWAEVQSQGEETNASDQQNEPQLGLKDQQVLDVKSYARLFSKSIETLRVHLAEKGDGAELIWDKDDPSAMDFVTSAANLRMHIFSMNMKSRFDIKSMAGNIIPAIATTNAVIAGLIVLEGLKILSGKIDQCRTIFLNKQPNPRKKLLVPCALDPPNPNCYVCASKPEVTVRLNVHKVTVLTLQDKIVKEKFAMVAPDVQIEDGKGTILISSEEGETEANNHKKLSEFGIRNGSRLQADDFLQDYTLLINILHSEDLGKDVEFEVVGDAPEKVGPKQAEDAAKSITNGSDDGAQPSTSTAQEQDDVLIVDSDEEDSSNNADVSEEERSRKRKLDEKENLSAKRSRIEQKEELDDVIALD
T1 sequence (Q9UBE0 1-346): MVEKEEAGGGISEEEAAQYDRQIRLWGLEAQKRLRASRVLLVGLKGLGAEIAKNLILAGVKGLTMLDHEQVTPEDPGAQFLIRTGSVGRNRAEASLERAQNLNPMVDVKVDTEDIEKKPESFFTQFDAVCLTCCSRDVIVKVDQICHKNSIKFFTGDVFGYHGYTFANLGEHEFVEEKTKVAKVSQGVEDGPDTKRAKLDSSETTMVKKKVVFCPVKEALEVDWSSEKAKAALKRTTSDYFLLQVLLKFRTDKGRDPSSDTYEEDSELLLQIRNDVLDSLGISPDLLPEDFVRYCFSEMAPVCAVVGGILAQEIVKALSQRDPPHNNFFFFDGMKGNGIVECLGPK
The assay can be described thus: SUMO IF: in vitro inhibitory activity assay against SAE in HCT116 cells (SUMO-2/3 immunofluorescence). Particulars: class symbols, 6 h at 37° C. The format is cell-based. The procedure, abridged:
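SUMO-2/3 immunofluorescence (18H8 primary 1:400, FITC secondary 1:300) was read after 6 h compound exposure of HCT116 cells at 37 °C. Inhibition rate and IC50 derive from signal relative to DMSO-treated wells.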
As to `NS(=O)(=O)OC[C@H]1[C@H](F)[C@@H](Nc2ncncc2C(=O)c2cc3c(s2)CC[C@]32NCC3(CC3)c3ccc(Cl)cc32)C[C@@H]1O` [Compound 704], the IC50 (as a rule, the concentration at which inhibition is half-maximal) lay within 50 to 200 nM.

Compound `Cc1sc(C(=O)c2cncnc2N[C@H]2C[C@H](O)[C@@H](COS(N)(=O)=O)[C@@H]2F)cc1C1NCCc2cnc(Cl)cc21` (some centres unmarked) [Compound 255] yielded an IC50 of 50 to 200 nM.

The compound `Cc1sc(C(=O)c2cncnc2N[C@H]2C[C@H](O)[C@@H](COS(N)(=O)=O)[C@@H]2F)cc1C1(C)NCCc2ccc(Cl)cc21` (some centres unmarked) [Compound 270] gave an IC50 of 50 to 200 nM.

In turn, `Cc1sc(C(=O)c2cncnc2N[C@H]2C[C@H](O)[C@@H](COS(N)(=O)=O)[C@@H]2F)cc1C1OCc2ccc(Cl)cc21` (some centres unmarked) [Compound 256] had an IC50 of over 200 nM.

For the compound `NS(=O)(=O)OC[C@H]1[C@H](F)[C@@H](Nc2ncncc2C(=O)c2cc3c(s2)CCC[C@]32NCCc3cc(F)c(Cl)cc32)C[C@@H]1O` [Compound 671], the IC50 was at most 50 nM.

Regarding `NS(=O)(=O)OC[C@H]1[C@H](F)[C@@H](Nc2ncncc2C(=O)c2cc3c(s2)CCC32NCCc3ccc(C4CC4)cc32)C[C@@H]1O` (some centres unmarked) [Compound 149], the IC50 is 50 to 200 nM.

As to `Cc1sc(C(=O)c2cncnc2N[C@H]2C[C@H](O)[C@@H](COS(N)(=O)=O)[C@@H]2F)cc1[C@@H]1NCCc2ccc(C#N)cc21` [Compound 239], the IC50 fell in the range of 50 to 200 nM.

`NS(=O)(=O)OC[C@H]1[C@H](F)[C@@H](Nc2ncncc2C(=O)c2cc3c(s2)COC[C@]32NCCc3ccccc32)C[C@@H]1O` [Compound 99] yielded an IC50 of 50 to 200 nM.

As to `NS(=O)(=O)OC[C@H]1[C@H](F)[C@@H](Nc2ncncc2C(=O)c2cc3c(s2)CCC[C@@]32NCCc3ccc(Cl)nc32)C[C@@H]1O` [Compound 601], the IC50 was over 200 nM.

On to `Cc1cc2c(cc1Cl)[C@@]1(CCCc3sc(C(=O)c4cncnc4N[C@H]4C[C@H](O)[C@@H](COS(N)(=O)=O)[C@@H]4F)cc31)NCC2` [Compound 673], for which the IC50 was at most 50 nM.

`Cc1sc(C(=O)c2cncnc2N[C@H]2C[C@H](O)[C@@H](COS(N)(=O)=O)[C@@H]2F)cc1C1OCCc2ccc(Cl)cc21` (some centres unmarked) [Compound 987] registered an IC50 of 50 to 200 nM.

On to `CN1Cc2sc(C(=O)c3cncnc3N[C@H]3C[C@H](O)[C@@H](COS(N)(=O)=O)[C@@H]3F)cc2[C@@]2(C1)OCCc1ccc(F)cc12` [Compound 721], for which the IC50 is over 200 nM.

On to `NS(=O)(=O)OC[C@H]1[C@H](F)[C@@H](Nc2ncncc2C(=O)c2cc3c(s2)CN(CC(F)(F)F)CC32NCCc3ccc(Cl)cc32)C[C@@H]1O` (some centres unmarked) [Compound 651], for which the IC50 was at most 50 nM.

As to `NS(=O)(=O)OC[C@H]1[C@H](F)[C@@H](Nc2ncncc2C(=O)c2cc3c(s2)C=CC32OCCc3ccc(F)cc32)C[C@@H]1O` (some centres unmarked) [Compound 756], the IC50 fell in the range of 50 to 200 nM.

As for `NS(=O)(=O)OC[C@H]1[C@H](F)[C@@H](Nc2ncncc2C(=O)c2nc3c(s2)CCCC32NCCc3ccc(Cl)cc32)C[C@@H]1O` (some centres unmarked) [Compound 585], the IC50 was over 200 nM.

`NS(=O)(=O)OC[C@H]1[C@H](F)[C@@H](Nc2ncncc2C(=O)c2cc3c(s2)CSC[C@]32NCCc3ncc(Cl)cc32)C[C@@H]1O` [Compound 614] returned an IC50 of at most 50 nM.

Take `Cc1sc(C(=O)c2cncnc2N[C@H]2C[C@H](O)[C@@H](COS(N)(=O)=O)[C@@H]2F)cc1C1NCCc2cc(Cl)ncc21` (some centres unmarked) [Compound 254]: the IC50 is 50 to 200 nM.

Regarding `NS(=O)(=O)OC[C@H]1[C@H](F)[C@@H](Nc2ncncc2C(=O)c2cc3c(s2)CSC[C@]32NCCc3cnc(Cl)cc32)C[C@@H]1O` [Compound 608], the IC50 is at most 50 nM.

The same assay, now with this note: numeric values, 6 h at 37° C.
`[2H]C1([2H])Cc2ccc(Cl)cc2[C@]2(CCCc3sc(C(=O)c4cncnc4N[C@H]4C[C@H](O)[C@@H](COS(N)(=O)=O)[C@@H]4F)cc32)N1` [Compound 661] showed an IC50 of over 1000 nM.

With `C=CCN1Cc2sc(C(=O)c3cncnc3N[C@H]3C[C@H](O)[C@@H](COS(N)(=O)=O)[C@@H]3F)cc2[C@@]2(C1)NCCc1ccc(Cl)cc12` [Compound 655], the IC50 is over 1000 nM.
